Counter-ions that a name gives are not always drawn.
Columns and labels:
[1] = test system: MCPP-induced Hypolocomotion; assay: Reversal of MCPP-induced hypolocomotion; format: in vivo; details: po, procedure of WO 94/04533, read-out: ID50 (the source's name)
Excerpt: Reversal of MCPP-induced Hypolocomotion

Row | melting point [°C] | Structure (SMILES) | ED50 [1] [mg/kg]
1 | 187 to 189 | COc1cc2c(cc1C(F)(F)F)N(C(=O)Nc1ccc(OCc3ccncc3)nc1)CC2 [Example 55, 5-Methoxy-6-trifluoromethyl-1-[6-(pyridin-4-ylmethyloxy)pyridin-3-ylcarbamoyl]indoline] | 0.5 to 5.5
2 | 193 to 194 | CSc1cc2c(cc1C(F)(F)F)N(C(=O)Nc1ccc(Oc3cccnc3)nc1)CC2 [Example 52] | 0.5 to 5.5
3 | 211 to 212 | COc1cc2c(cc1C(F)(F)F)N(C(=O)Nc1ccc(C)c(-c3cccnc3)c1)CC2 [Example 7, 1-[4-Methyl-3-(3-Pyridyl)phenylcarbamoyl]-5-methoxy-6-trifluoromethyl Indoline] | 0.5 to 5.5
4 | 210 to 213 | COc1cc2c(cc1C(F)(F)F)N(C(=O)Nc1ccc(Cl)c(-c3cccnc3)c1)CC2 [Example 26, 1-(4-Chloro-3-(pyrid-3-yl)phenylcarbamoyl)-5-methoxy-6-trifluoromethylindoline] | 0.5 to 5.5
5 | 202 to 204 | COc1cc2c(cc1C(F)(F)F)N(C(=O)Nc1ccc(Oc3cccnc3)nc1)CC2 [Example 53, 5-Methoxy-6-trifluoromethyl-1-[6(pyridin-3-yloxy)pyridin-3-ylcarbamoyl]indoline] | 0.5 to 5.5
6 | 208 to 210 | CSc1cc2c(cc1C(F)(F)F)N(C(=O)Nc1cccc(-c3cccnc3)c1)CC2 [Example 3, 1-[(3-Pyridyl)-3-phenyl Carbamoyl]-5-methylthio-6-trifluoromethyl Indoline] | 0.5 to 5.5
7 | 205 to 207 | CCc1cc(NC(=O)N2CCc3cc(OC)c(C(F)(F)F)cc32)cc(-c2cccnc2)c1 [Example 42, 1-[5-Ethyl-3-(pyrid-3-yl)phenylcarbamoyl]-5-methoxy-6-trifluoromethylindoline] | 0.5 to 5.5
8 | 221 to 223 | CSc1cc2c(cc1C(F)(F)F)N(C(=O)Nc1ccc(C)c(-c3cccnc3)c1)CC2 [Example 24, 1-(4-Methyl-3-(pyrid-3-yl)phenylcarbamoyl)-5-thiomethyl-6-trifluoromethyl Indoline] | 0.5 to 5.5
9 | 191 to 195 | COc1cc2c(cc1C(F)(F)F)N(C(=O)Nc1cc(F)cc(-c3cnccc3C)c1)CC2 [Example 21, 1-(3-Fluoro5-(4-methyl-3-pyridyl)phenylcarbamoyl)-5-methoxy-6-trifluoromethylindoline] | 0.5 to 5.5
10 | 210 to 212 | COc1cc2c(cc1C(F)(F)F)N(C(=O)Nc1ccc(F)c(-c3cccnc3)c1)CC2 [Example 77, 1-[4-Fluoro-3-(3-pyridyl)phenylcarbamoyl]-5-methoxy-6-trifluoromethyl Indoline] | 0.5 to 5.5

The remaining lines, values behind:

Row | Structure (SMILES) | melting point [°C] | ED50 [1] [mg/kg]
11 | COc1cc2c(cc1C(F)(F)F)N(C(=O)Nc1cc3c(c(-c4cccnc4)c1)OCC3)CC2 [Example 80, 1-[2,3-Dihydro-7-(pyrid-3-yl)benzofuran-5-ylcarbamoyl]-5-methoxy-6-trifluoromethyl Indoline] |  | 0.5 to 5.5
12 | CSc1cc2c(cc1C(F)(F)F)N(C(=O)Nc1cc(F)cc(-c3cccnc3)c1)CC2 [Example 25, 1-(3-Fluoro-5-(pyrid-3-yl)phenylcarbamoyl)5-thiomethyl-6-trifluoromethyl-indoline Hydrochloride] |  | 0.5 to 5.5
13 | COc1cc2c(cc1C(F)(F)F)N(C(=O)Nc1cccc(-c3cncnc3)c1)CC2 [Example 40, 1-[3-(5-Pyrimidyl)phenylcarbamoyl]-5-methoxy-6-trifluoromethyl-indoline] |  | 0.5 to 5.5
14 | COc1cc2c(cc1C(F)(F)F)N(C(=O)Nc1ccc(Oc3cccnc3C)nc1)CC2 [Example 81, 5-Methoxy-6-trifluoromethyl-1-[6-(2-methylpyridin-3-yloxy)pyridin-3-ylcarbamoyl]indoline] | 227 to 230 | 0.5 to 5.5
15 | COc1cc2c(cc1C(F)(F)F)N(C(=O)Nc1cc(F)cc(-c3cccnc3)c1)CC2 [Example 8, 1-[3-Fluoro-5-(3-pyridyl)phenylcarbamoyl]-5-methoxy-6-trifluoromethyl Indoline] |  | 0.5 to 5.5
16 | COc1ccc(NC(=O)N2CCc3cc(OC)c(C(F)(F)F)cc32)cc1-c1cccnc1 [Example 31, 1-[4-Methoxy-3(pyrid-3-yl)phenylcarbamoyl]-5-methoxy-6-trifluoromethylindoline] |  | 0.5 to 5.5
17 | COc1cc2c(cc1C(F)(F)F)N(C(=O)Nc1cccc(-c3cccnc3)c1)CC2 [Example 1] |  | 0.5 to 5.5
18 | COc1cc2c(cc1C(F)(F)F)N(C(=O)Nc1cc(F)cc(-c3cncnc3)c1)CC2 [Example 78, 1-[3-Fluoro-5-(pyrimidin-5-yl)phenylcarbamoyl]-5-methoxy-6-trifluoromethyl Indoline] |  | 0.5 to 5.5
19 | COc1cc2c(cc1C(F)(F)F)N(C(=O)Nc1ccc(Cl)c(-c3cnccc3C)c1)CC2 [Example 79, 1-(4-Chloro-3-(4-methyl-3-pyridyl)phenylcarbamoyl]-5-methoxy-6-trifluoromethylindoline] |  | 0.5 to 5.5
20 | COc1cc2c(cc1C(F)(F)F)N(C(=O)Nc1ccc(OCc3ccncc3)cc1)CC2 [Example 54, 5-Methoxy-6-trifluoromethyl-1-[4-(pyridin-4-ylmethyloxy)phenyl Carbamoyl]indoline] | 205 to 207 | 0.5 to 5.5

Source: patent publication US6638953B2, “Indole derivatives as 5-HT receptor antagonist” (SmithKline Beecham p.l.c., priority 1995, dated 2003)
